Results: paper PMC8536124 (International Journal of Molecular Sciences, 2021)
Read-outs that look alike come from different tables or passages of the source.

Legend:
HCT-116 = test: NCI-60 screening (SRB); type: cell-based, human; details: five-dose
MOLT-4 = test: NCI-60 screening (SRB); type: cell-based, human; details: five-dose
K-562 = test: NCI-60 screening (SRB); type: cell-based, human
SK-MEL-2 = test: NCI-60 screening (SRB); type: cell-based, human; details: five-dose
OVCAR-8 = test: NCI-60 screening (SRB); type: cell-based, human; details: five-dose
DU-145 = test: NCI-60 screening (SRB); type: cell-based, human; details: five-dose
RPMI-8226 = test: NCI-60 screening (SRB); type: cell-based, human; details: five-dose
NCI-H23 = test: NCI-60 screening (SRB); type: cell-based, human; details: five-dose
SK-MEL-5 = test: NCI-60 screening (SRB); type: cell-based, human; details: SK-MEL-5
NCI-H226 = test: NCI-60 screening (SRB); type: cell-based, human; details: five-dose
MCF7 = test: NCI-60 screening (SRB); type: cell-based, human; details: five-dose
OVCAR-4 = test: NCI-60 screening (SRB); type: cell-based, human; details: five-dose
HT29 = test: NCI-60 screening (SRB); type: cell-based, human
BT-549 = test: NCI-60 screening (SRB); type: cell-based, human; details: five-dose
786-0 = test: NCI-60 screening (SRB); type: cell-based, human; details: five-dose
PC-3 = test: NCI-60 screening (SRB); type: cell-based, human; details: five-dose
CNS cancer = test: cells; type: cell-based
Source text: (§1) The experimental data allow the assessment of the cytostatic effect, indicated by growth inhibition values ranging between 0 and 100, as well as of the cytotoxic effect, indicated by negative values.
(§2) The mean GI50 (molar concentration of the compound that inhibits 50% net cell growth), TGI (molar concentration of the compound leading to the total inhibition), and LC50 (molar concentration of the compound leading to 50% net cell death (presented in negative logarithm)) values across each cell line are shown in Table 2.
(§3) The selectivity index (SI), calculated as the ratio between the full panel MG_MID60 (μM) of compounds 4, 6, and 9 by their respective subpanels MG_MID of the cell line (μM), was introduced as a quantification tool for the selectivity of each compound in terms of anticancer effect (Table 3).
(§4) Primary anticancer assays were performed according to the NCI protocol, as described elsewhere (see e.g., http://dtp.nci.nih.gov accessed on 1 November 2018). The compounds were added at a single concentration, and the cell cultures were incubated for 48 h. The end point determinations were made with a protein-binding dye, sulforhodamine B (SRB). […] The percentage of growth was evaluated spectrophotometrically versus controls not treated with test agents after 48 h exposure and using SRB protein assay to estimate cell viability or growth. Three antitumor activity dose-response parameters were calculated for each cell line. Furthermore, mean graph midpoints (MG_MID) were calculated for each of the parameters, giving an average activity parameter over all cell lines for the tested compound. For the MG_MID calculation, insensitive cell lines were included with the highest concentration tested.

MDA-MB-435 = test: NCI-60 screening (SRB); type: cell-based, human; details: five-dose
NCI-H322M = test: NCI-60 screening (SRB); type: cell-based, human; details: five-dose
RXF 393 = test: NCI-60 screening (SRB); type: cell-based, human; details: five-dose
CAKI-1 = test: NCI-60 screening (SRB); type: cell-based, human; details: CAKI-1, five-dose
SK-MEL-28 = test: NCI-60 screening (SRB); type: cell-based, human
[1] = test system: NCI-60 cancer cell line panel; test: NCI-60 screening (SRB), full panel; type: cell-based, human; details: for activity at 10 µM: 60 cell lines, 48 h
Source text: as §1, §2, §3, §4

HL-60(TB) = test: NCI-60 screening (SRB); type: cell-based, human; details: HL-60(TB), five-dose
NCI-H460 = test: NCI-60 screening (SRB); type: cell-based, human; details: five-dose
UO-31 = test: NCI-60 screening (SRB); type: cell-based, human; details: five-dose
[2] = Homo sapiens, read-out: LC50 (the source's name)
[3] = Homo sapiens, five-dose, read-out: LC50 (the source's name)

SMILES: CCN1CCN(C(=O)[C@]23CC[C@@H](C)[C@H](C)[C@H]2C2=CC[C@@H]4[C@@]5(C)CCC(=O)C(C)(C)[C@@H]5CC[C@@]4(C)[C@]2(C)CC3)CC1 [Compound 4, N-(3-oxo-ursan-12-en-28-oyl)-ethylpiperazine]
- GI50 (HCT-116; Homo sapiens): 798 nM
- CC50 (HCT-116; [2]): 3.09 µM
- TGI (HCT-116): 1.57 µM
- GI50 (MOLT-4; Homo sapiens): 994 nM
- CC50 (MOLT-4; [2]): > 50 µM
- TGI (MOLT-4): 2.90 µM
- GI50 (K-562; Homo sapiens, K562, five-dose): 980 nM
- CC50 (K-562; Homo sapiens, K562, five-dose, read-out: LC50 (the source's name)): 4.84 µM
- TGI (K-562; five-dose): 2.18 µM
- GI50 (SK-MEL-2; Homo sapiens): 1290 nM
- CC50 (SK-MEL-2; [2]): 16.2 µM
- TGI (SK-MEL-2): 3.33 µM
- GI50 (OVCAR-8; Homo sapiens): 1100 nM
- CC50 (OVCAR-8; [2]): 30.1 µM
- TGI (OVCAR-8): 2.89 µM
- GI50 (DU-145; Homo sapiens): 1670 nM
- CC50 (DU-145; [2]): 18.6 µM
- TGI (DU-145): 5.62 µM
- GI50 (RPMI-8226; Homo sapiens): 809 nM
- CC50 (RPMI-8226; [2]): 4.9 µM
- TGI (RPMI-8226): 1.99 µM
- GI50 (NCI-H23; Homo sapiens): 1080 nM
- CC50 (NCI-H23; [2]): 11.6 µM
- TGI (NCI-H23): 2.90 µM
- GI50 (SK-MEL-5; Homo sapiens, five-dose): 888 nM
- CC50 (SK-MEL-5; [3]): 2890 nM
- Growth % (SK-MEL-5; 1 dose 10 µM): −84.06%
- TGI (SK-MEL-5; five-dose): 1.60 µM
- GI50 (NCI-H226; Homo sapiens): 1780 nM
- CC50 (NCI-H226; [2]): 28.7 µM
- TGI (NCI-H226): 7.01 µM
- GI50 (MCF7; Homo sapiens): 892 nM
- CC50 (MCF7; [2]): 4.63 µM
- TGI (MCF7): 2.03 µM
- GI50 (OVCAR-4; Homo sapiens): 1260 nM
- CC50 (OVCAR-4; [2]): 18 µM
- TGI (OVCAR-4): 4.74 µM
- GI50 (HT29; Homo sapiens, HT-29, five-dose): 913 nM
- CC50 (HT29; Homo sapiens, HT-29, five-dose, read-out: LC50 (the source's name)): 4.59 µM
- TGI (HT29; five-dose): 2.05 µM
- GI50 (BT-549; Homo sapiens): 833 nM
- CC50 (BT-549; [2]): 3000 nM
- TGI (BT-549): 1.58 µM
- GI50 (786-0; Homo sapiens): 814 nM
- CC50 (786-0; [2]): 3.56 µM
- TGI (786-0): 1.70 µM
- GI50 (PC-3; Homo sapiens): 875 nM
- CC50 (PC-3; [2]): 18.3 µM
- TGI (PC-3): 3.17 µM
- TGI MG_MID (CNS cancer; CNS cancer subpanel, five-dose): 2.84 µM
- SI (TGI) (CNS cancer; CNS cancer, MG_MID60/subpanel MG_MID): 0.96
- GI50 (CNS cancer; Homo sapiens, CNS cancer subpanel, five-dose, read-out: GI50 MG_MID): 1030 nM
- CC50 (CNS cancer; Homo sapiens, CNS cancer subpanel, five-dose, read-out: LC50 MG_MID): 8.69 µM
- GI50 (MDA-MB-435; Homo sapiens): 1050 nM
- CC50 (MDA-MB-435; [2]): 5.22 µM
- TGI (MDA-MB-435): 2.30 µM
- GI50 (NCI-H322M; Homo sapiens): 1570 nM
- CC50 (NCI-H322M; [2]): 16.8 µM
- TGI (NCI-H322M): 5.43 µM
- GI50 (RXF 393; Homo sapiens): 822 nM
- CC50 (RXF 393; [2]): 3.69 µM
- TGI (RXF 393): 1.74 µM
- TGI (CAKI-1): 2.96 µM
- GI50 (CAKI-1; Homo sapiens): 946 nM
- CC50 (CAKI-1; [2]): 11.2 µM
- Growth % (SK-MEL-28; 1 dose 10 µM): −64.66%
- GI50 (SK-MEL-28; Homo sapiens, five-dose): 889 nM
- CC50 (SK-MEL-28; [3]): 3.27 µM
- TGI (SK-MEL-28; five-dose): 1.70 µM
- Positive Cytostatic Effect (cell lines with percent growth 0 to 50 / total) ([1]; 1 dose 10 µM): 60/60
- Positive Cytotoxic Effect (cell lines with percent growth <0 / total) ([1]; 1 dose 10 µM): 60/60
- GI50 ([1]; Homo sapiens, five-dose, bound, read-out: GI50 against all human tumor cells): < 2000 nM
- GI50 ([1]; Homo sapiens, five-dose, read-out: GI50 against the most sensitive cell lines): 700 to 990 nM
- GI50 ([1]; Homo sapiens, mean graph midpoint, full panel, five-dose, read-out: GI50 MG_MID60): 1030 nM
- CC50 ([1]; Homo sapiens, mean graph midpoint, full panel, five-dose, read-out: LC50 MG_MID60): 12.3 µM
- activity at 10 µM ([1]; Homo sapiens, 1 dose 10 µM, read-out: Mean Growth, %): -10.5%
- activity at 10 µM ([1]; Homo sapiens, 1 dose 10 µM, read-out: Range of Growth, %): -85.7 to -41.5%
- selectivity class ([1]; all GI50, TGI, and LC50 levels): nonselective (ratios below 3 indicate nonselective compounds)
- TGI MG_MID60 ([1]; mean graph midpoint, full panel, five-dose): 2.74 µM
- TGI (HL-60(TB)): 2.74 µM
- GI50 (HL-60(TB); Homo sapiens): 976 nM
- CC50 (HL-60(TB); [2]): > 50 µM
- GI50 (NCI-H460; Homo sapiens): 913 nM
- CC50 (NCI-H460; [2]): 3.27 µM
- TGI (NCI-H460): 1.75 µM
- GI50 (UO-31; Homo sapiens): 726 nM
- CC50 (UO-31; [2]): 2790 nM
- TGI (UO-31): 1.42 µM
